In the NIST ThermoML archive (doi:10.1016/j.fluid.2018.01.030):

Experiments:
[1] = 101.33 kPa, Liquid; for viscosity: Capillary tube (Ostwald / Ubbelohde) method; for mass density: Pycnometric method
[2] = wn = mass fraction of the nth substance listed; settings: for viscosity / mass density: 101 kPa, Liquid; for viscosity: Capillary tube (Ostwald / Ubbelohde) method; for mass density: Pycnometric method; for surface tension liquid-gas: Pendant drop shape

NCCN1CCNCC1 [N-(β-aminoethyl)piperazine)]
[1]
Settings	mass density [kg/m3]	viscosity [mPa·s]
303.2 K	981.129	14.18
313.2 K	977.356	8.669
323.2 K	973.989	5.626
333.2 K	969.461	4.481
343.2 K	965.122	3.697

CN(CCO)CCO [N-methyldiethanolamine] + O
[2]
Settings	mass density, 303.2 K [kg/m3]	mass density, 313.2 K [kg/m3]	mass density, 323.2 K [kg/m3]	mass density, 333.2 K [kg/m3]	viscosity, 303.2 K [mPa·s]	viscosity, 313.2 K [mPa·s]	viscosity, 323.2 K [mPa·s]	viscosity, 333.2 K [mPa·s]
w1 = 0.1	1003.8	999.5	995.2	990.5	1.164	0.912	0.752	0.635
w1 = 0.2	1012.4	1008.4	1003.5	998.6	1.635	1.314	1.06	0.867
w1 = 0.3	1024.5	1019.5	1015.2	1008.2	2.634	1.946	1.517	1.219

OCCNCCO [diethanolamine] + O
surface tension liquid-gas [mN/m], [2]
Settings	313.2 K	323.2 K	333.2 K
w1 = 0.1	60.42	59.18	58.85
w1 = 0.2	63.07	62.23	60.56
w1 = 0.3	61.57	60.13	58.43
